# Reference: article PMC11861906, “Structural basis for lipid-mediated activation of G protein-coupled receptor GPR55” (Nature Communications, 2025)
# Target: thromboxane A2 receptor (TBXA2R) (Gα13) (Homo sapiens, UniProt P21731)
# Assay: BRET² G protein dissociation assay, TBXA2R with Gα13
# Format: cell-based
# Conditions: for Mean (plotted), G protein dissociation BRET² signal: TBXA2R-G13, Fig. 5c source data
# Protocol: G protein dissociation assays were performed according to the original protocols of the TRUPATH BRET² assay[47],[87] but with subtle modifications as previously described[61],[88],[89]. All reagents and cells were obtained from Thermo Fisher Scientific unless indicated otherwise. The coding sequences for the G protein biosensors[47] (Gα12-Rluc8, Gα13-Rluc8, wt Gβ3, and Gγ9-GFP), the wt GPR55, the construct used for cryo-EM (with GFP bearing a G67A mutation to disrupt fluorescence properties[48] for BRET² assays), GPR55 binding pocket mutants (G152^4.56F, G152^4.56W, N171^ECL2Q, N171^ECL2A, T176^5.33A, R253^6.62A), and the wt TBXA2R were codon-optimized for Homo sapiens, gene-synthesized, and sub-cloned into pcDNA^TM3.1(+) between NheI and HindIII restriction sites by GeneArt (Thermo Fisher Scientific). […] Freshly grown cells were washed with Dulbecco’s Balanced Salt Solution (DPBS, cat. #14200075) and detached using trypsin-ethylenediaminetetraacetic acid (trypsin-EDTA) (cat. #25300-062). Then, the cells were reconstituted to 500,000 cells per mL with fresh medium, and 1,000,000 cells were seeded into each well of a 6-well plate. After 3 h incubation at 37 °C and 5% CO2, adherent cells were transfected with 600 ng DNA (1:1:1:1 ratio of plasmid DNA for GPR55, wt Gβ3, Gγ9-GFP, and Gα12-Rluc8 or Gα13-Rluc8). Plasmid DNA was mixed with 1.5 µL Lipofectamine^TM 2000 (cat. #11668027) in Opti-MEM^TM medium (cat. #31985062) and incubated for 20 min. Then, the mixture was added to each well of the 6-well plate following 24 h incubation at 37 °C and 5% CO2. Transfected cells were washed with DPBS, detached using EDTA (Versene, cat. #15040066), and reconstituted into fresh medium at 500,000 cells mL^−1. From this suspension, 50,000 cells were seeded into each well of a white-bottom 96-well plate (Nunc^TM MicroWell^TM 96 wells, cat. #136101) following overnight incubation at 37 °C and 5% CO2. Then, the adherent cells were washed with assay medium [Hank’s balanced salt solution (HBSS, cat. #14065056) plus 20 mM HEPES pH 7.4 (cat. #15630056)] and finally reconstituted into 50 µL of the same medium. […] Methoxy e-Coelenterazine was used as luciferase substrate (Prolume Purple, NanoLight Technology, cat. #369), reconstituted at 1 mM in methanol and diluted to 37.5 µM with assay buffer (7.5 µM final assay concentration). The assay was started by the addition of 20 µL luciferase substrate to each well of the assay plate using a Multidrop^TM Combi reagent dispenser (Thermo Fisher Scientific), followed by 5 min incubation at room temperature. Then, 30 µL of agonist dilutions or DMSO control was added (final DMSO concentration 1.5%), followed by an additional 5 min incubation at room temperature.
# Sequence of thromboxane A2 receptor (TBXA2R) (Gα13) (P21731 whole entry, species assumed): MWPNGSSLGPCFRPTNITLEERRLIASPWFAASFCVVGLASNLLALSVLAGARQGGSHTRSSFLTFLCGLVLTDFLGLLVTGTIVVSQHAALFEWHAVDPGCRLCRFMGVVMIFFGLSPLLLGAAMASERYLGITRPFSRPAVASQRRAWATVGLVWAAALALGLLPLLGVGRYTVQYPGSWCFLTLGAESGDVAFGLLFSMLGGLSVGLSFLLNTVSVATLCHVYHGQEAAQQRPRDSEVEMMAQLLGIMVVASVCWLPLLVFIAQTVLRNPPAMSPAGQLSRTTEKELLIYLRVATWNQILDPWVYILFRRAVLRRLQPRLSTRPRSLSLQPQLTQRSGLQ
# Sequence of thromboxane A2 receptor (TBXA2R) (Gα13) (Q14344 whole entry partner, species assumed): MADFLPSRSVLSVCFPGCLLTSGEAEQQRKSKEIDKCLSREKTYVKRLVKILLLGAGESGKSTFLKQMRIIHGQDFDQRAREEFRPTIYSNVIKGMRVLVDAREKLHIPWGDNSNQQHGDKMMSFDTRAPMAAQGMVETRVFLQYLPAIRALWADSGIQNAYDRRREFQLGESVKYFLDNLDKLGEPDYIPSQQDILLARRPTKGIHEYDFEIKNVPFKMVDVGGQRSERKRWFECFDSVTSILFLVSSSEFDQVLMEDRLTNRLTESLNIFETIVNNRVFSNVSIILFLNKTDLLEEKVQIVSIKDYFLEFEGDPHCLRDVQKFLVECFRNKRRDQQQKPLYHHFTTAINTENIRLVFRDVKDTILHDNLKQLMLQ
# Sequence of thromboxane A2 receptor (TBXA2R) (Gα13) (P16520 whole entry partner, species assumed): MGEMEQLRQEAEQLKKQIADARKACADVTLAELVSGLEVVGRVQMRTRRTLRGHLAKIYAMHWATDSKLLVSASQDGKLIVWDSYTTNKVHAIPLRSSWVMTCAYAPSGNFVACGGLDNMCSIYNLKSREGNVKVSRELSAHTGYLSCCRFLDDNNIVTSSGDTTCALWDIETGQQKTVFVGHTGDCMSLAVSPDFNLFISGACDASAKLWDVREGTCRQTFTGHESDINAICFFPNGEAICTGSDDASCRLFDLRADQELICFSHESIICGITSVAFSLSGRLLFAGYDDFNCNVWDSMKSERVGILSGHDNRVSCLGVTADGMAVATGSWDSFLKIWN
# Sequence of thromboxane A2 receptor (TBXA2R) (Gα13) (O14610 1-66 partner limits assumed, species assumed): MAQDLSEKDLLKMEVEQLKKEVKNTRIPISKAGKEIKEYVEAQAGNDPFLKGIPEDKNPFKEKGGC
SMILES,"Mean (plotted), G protein dissociation BRET² signal (concentration 300 pM)","Mean (plotted), G protein dissociation BRET² signal (concentration 1e-9 M)","Mean (plotted), G protein dissociation BRET² signal (concentration 3e-9 M)","Mean (plotted), G protein dissociation BRET² signal (concentration 1e-8 M)","Mean (plotted), G protein dissociation BRET² signal (concentration 3e-8 M)","Mean (plotted), G protein dissociation BRET² signal (concentration 1e-7 M)","Mean (plotted), G protein dissociation BRET² signal (concentration 3e-7 M)","Mean (plotted), G protein dissociation BRET² signal (concentration 1e-6 M)","Mean (plotted), G protein dissociation BRET² signal (concentration 3e-6 M)","Mean (plotted), G protein dissociation BRET² signal (concentration 1e-5 M)","Mean (plotted), G protein dissociation BRET² signal (concentration 3e-5 M)","Efficacy ± SEM (%) (TBXA2, Gα13)","pEC50 ± SEM (TBXA2, Gα13)","EC50 (TBXA2R via Gα13, read-out: potency (EC50)) [nM]","Mean (plotted), G protein dissociation BRET² signal (concentration 10 pM)","Mean (plotted), G protein dissociation BRET² signal (concentration 30 pM)"
"Cc1cccc(N2CCN(C(=O)c3cc(S(=O)(=O)N(C)C)ccc3N3CCCC3)CC2)c1C [ML184, 3-[[4-(2,3-dimethylphenyl)-1-piperazinyl]carbonyl]-N,N-dimethyl-4-(1-pyrrolidinyl)benzenesulfonamide]",-0.002664,-0.001942,-0.0001851,0.008857,0.0122,0.01041,0.01174,0.01712,0.01801,0.01748,0.01231,–,–,–,–,–
CCCCC[C@H](O)/C=C/[C@@H]1[C@@H](C/C=C\CCCC(=O)O)[C@H]2CO[C@@H]1C2 [U-46619],-0.03967,-0.07222,-0.103,–,-0.1326,–,-0.1394,-0.1409,–,–,–,100 ± 2,9.03 ± 0.11,0.93,0.004083,0.00585
